Test results reported in publication PMC6514978, “Synthesis, Antibacterial Activities, Mode of Action and Acute Toxicity Studies of New Oxazolidinone-Fluoroquinolone Hybrids” (Molecules, 2019).
Converted amounts (≈) assume the structure as drawn.

Columns and labels:
[1] = tested on: S. haemolyticus (32) clinical isolates; assay: Susceptibility of clinical isolates (MIC); format: cell-based, Staphylococcus haemolyticus
Procedure: (§1) Susceptibility testing of oxazolidinone-fluoroquinolone hybrids against various bacteria was performed by the broth microdilution method as outlined by the Clinical and Laboratory Standards Institute (CLSI). Three types of media, including cation-adjusted Mueller Hinton broth, Haemophilus Test Medium and cation-adjusted Mueller Hinton broth that contained 3%–5% lysed horse blood, were used to culture the corresponding bacteria. […] A final inoculum of 5 × 10^5 CFU/mL was used and plates were read after incubation for 16–24 h at 35 °C. […] Standard quality control strains (ATCC) were included throughout. Each determination was repeated in triplicate.

[2] = tested on: S. aureus (46) clinical isolates; assay: Susceptibility of clinical isolates (MIC); format: cell-based, Staphylococcus aureus; details: for Cumulative % of strains inhibited at MIC / No. of strains inhibited at MIC: S. aureus (46)
Procedure: as §1

[3] = tested on: S. epidermidis (10) clinical isolates; assay: Susceptibility of clinical isolates (MIC); format: cell-based, Staphylococcus epidermidis
Procedure: as §1

[4] = tested on: S. pneumoniae (ATCC49619); assay: MIC, broth microdilution (CLSI), standard strain; format: cell-based; details: Streptococcus pneumoniae
Text: (§2) 6 standard strains and 3 clinical isolates were used to the preliminary evaluation of in vitro antibacterial activities of oxazolidinone-fluoroquinolone hybrids. For the further evaluation of hybrids OBP-4 and OBP-5, 263 clinical isolates including S. aureus (46), S. haemolyticus(32), S. epidermidis (10), E. faecalis (72), E. faecium (47), S. pneumoniae (13), H. parasuis (34), S. suis (9), and 8 resistant strains including MRSA, MRSE, CIP-resistant S. aureus and S. haemolyticus, VAN and quinolone-resistant S. pneumoniae, LZD-resistant E. faecalis, LZD/VAN and quinolone-resistant E. faecium were collected and tested.
(§3) Susceptibility testing of oxazolidinone-fluoroquinolone hybrids against various bacteria was performed by the broth microdilution method as outlined by the Clinical and Laboratory Standards Institute (CLSI). Three types of media, including cation-adjusted Mueller Hinton broth, Haemophilus Test Medium and cation-adjusted Mueller Hinton broth that contained 3%–5% lysed horse blood, were used to culture the corresponding bacteria. All compounds including comparator drugs were dissolved in an appropriate solvent at a concentration of 2.048 mg/mL and then serially diluted two-fold to provide the required concentrations. A final inoculum of 5 × 10^5 CFU/mL was used and plates were read after incubation for 16–24 h at 35 °C. […] Standard quality control strains (ATCC) were included throughout. Each determination was repeated in triplicate.

S. aureus (ATCC29213) = assay: MIC, broth microdilution (CLSI), standard strain; format: cell-based; details: Staphylococcus aureus
Text: as §2, §3

E. faecalis (ATCC29212) = assay: MIC, broth microdilution (CLSI), standard strain; format: cell-based; details: Enterococcus faecalis; E. faecalis (ATCC29212); read-out: MIC
Text: as §2, §3

E. coli (ATCC25922) = assay: MIC, broth microdilution (CLSI), standard strain; format: cell-based; details: Escherichia coli; E. coli (ATCC25922); read-out: MIC
Text: as §2, §3

[5] = tested on: P. Aeruginosa (ATCC27853); assay: MIC, broth microdilution (CLSI), standard strain; format: cell-based; details: Pseudomonas aeruginosa; P. Aeruginosa (ATCC27853); read-out: MIC
Text: as §2, §3

[6] = tested on: H. influenzae (ATCC49247); assay: MIC, broth microdilution (CLSI), standard strain; format: cell-based; details: Haemophilus influenzae
Text: as §2, §3

[7] = tested on: S. suis (9) clinical isolates; assay: Susceptibility of clinical isolates (MIC); format: cell-based, Streptococcus suis; details: for Cumulative % of strains inhibited at MIC / No. of strains inhibited at MIC: S. suis (9)
Procedure: as §1

[8] = tested on: E. faecalis (72) clinical isolates; assay: Susceptibility of clinical isolates (MIC); format: cell-based, Enterococcus faecalis; details: for Cumulative % of strains inhibited at MIC / No. of strains inhibited at MIC: E. faecalis (72)
Procedure: as §1

[9] = tested on: H. parasuis (34) clinical isolates; assay: Susceptibility of clinical isolates (MIC); format: cell-based, Haemophilus parasuis; details: for Cumulative % of strains inhibited at MIC / No. of strains inhibited at MIC: H. parasuis (34)
Procedure: as §1

VRE (13B330) = assay: MIC, broth microdilution (CLSI), clinical isolate; format: cell-based, vancomycin-resistant enterococcus; details: Enterococcus
Text: as §2, §3

[10] = tested on: protein synthesis (E. coli extract-based cell-free protein expression system); assay: In vitro transcription/translation assay (S30 T7 cell-free system, Renilla luciferase); format: biochemical
Procedure: The influence of hybrids OBP-4 and OBP-5 against protein synthesis was confirmed by the S30 T7 High-Yield Protein Expression System (Promega Co., Ltd.). The S30 T7 High-Yield Protein Expression System is an E. coli extract-based cell-free protein expression system, which can effectively transcribe and translate DNA fragments with a T7 promoter. The reaction system containing 1 μg plasmid DNA, 20 μL S30 Premix Plus and 18 μL T7 S30 Extract with or without compounds was incubated for 1 h at 37 °C with a rotational speed of 250 rpm, and terminated by cooling in ice for 5 min in a 96-well white multi-well plate. Then, 1.25 μL of the translation reaction mixture was added to 48.75 μL of Renilla Luciferase Assay Lysis Buffer, and mixed with 50 μL of Renilla Luciferase Assay Reagent (cat no. E2810; Promega). Renilla luciferase activity was measured on EnSpire® Multimode Plate Reader (PerkinElmer, Waltham, MA, USA). […] LZD was used as a positive control.

[11] = S. haemolyticus (32), MIC 0.125 µg/mL
[12] = Enterococcus faecalis, E. faecalis, 72 clinical isolates

SMILES: CC1Sc2c(C(=O)O)c(=O)c3cc(F)c(N4CCC(O)(COc5ccc(N6C[C@H](CO)OC6=O)cc5F)CC4)cc3n21 (some centres unmarked) [OBP-5]
- Cumulative % of strains inhibited at MIC [1, 11]: 100.0%
- No. of strains inhibited at MIC [1, 11]: 2
- No. of strains inhibited at MIC ([1]; S. haemolyticus (32), MIC ≤[…]): 30
- MIC50 ([1]; Staphylococcus haemolyticus, S. haemolyticus, 32 clinical isolates, read-out: MIC50): ≤ 0.0625 µg/mL
- MIC90 ([1]; Staphylococcus haemolyticus, S. haemolyticus, 32 clinical isolates, read-out: MIC90): ≤ 0.0625 µg/mL
- MIC ([1]; Staphylococcus haemolyticus, S. haemolyticus, 32 clinical isolates, read-out: MIC Range): 0.0625 to 0.125 µg/mL (≈ 0.104 to 0.207 µM)
- Cumulative % of strains inhibited at MIC ([2]; MIC 0.125 µg/mL): 97.8%
- No. of strains inhibited at MIC ([2]; MIC 0.125 µg/mL): 3
- Cumulative % of strains inhibited at MIC ([2]; MIC […]): 100.0%
- No. of strains inhibited at MIC ([2]; MIC […]): 1
- Cumulative % of strains inhibited at MIC ([2]; MIC ≤[…]): 91.3%
- No. of strains inhibited at MIC ([2]; MIC ≤[…]): 42
- MIC50 ([2]; Staphylococcus aureus, S. aureus, 46 clinical isolates, read-out: MIC50): ≤ 0.0625 µg/mL
- MIC90 ([2]; Staphylococcus aureus, S. aureus, 46 clinical isolates, read-out: MIC90): ≤ 0.0625 µg/mL
- MIC ([2]; Staphylococcus aureus, S. aureus, 46 clinical isolates, read-out: MIC Range): 0.0625 to 0.25 µg/mL (≈ 0.104 to 0.414 µM)
- No. of strains inhibited at MIC ([3]; S. epidermidis (10), MIC 0.125 µg/mL): 2
- Cumulative % of strains inhibited at MIC ([3]; S. epidermidis (10), MIC ≤[…]): 80.0%
- No. of strains inhibited at MIC ([3]; S. epidermidis (10), MIC ≤[…]): 8
- MIC50 ([3]; Staphylococcus epidermidis, S. epidermidis, 10 clinical isolates, read-out: MIC50): ≤ 0.0625 µg/mL
- MIC90 ([3]; Staphylococcus epidermidis, S. epidermidis, 10 clinical isolates, read-out: MIC90): 0.125 µg/mL (≈ 0.207 µM)
- MIC ([3]; Staphylococcus epidermidis, S. epidermidis, 10 clinical isolates, read-out: MIC Range): 0.0625 to 0.125 µg/mL (≈ 0.104 to 0.207 µM)
- MIC [4]: 0.062 µg/mL (≈ 0.103 µM)
- MIC (S. aureus (ATCC29213)): 0.25 µg/mL (≈ 0.414 µM)
- MIC (E. faecalis (ATCC29212)): 1 µg/mL (≈ 1.66 µM)
- MIC (E. coli (ATCC25922)): 4 µg/mL (≈ 6.63 µM)
- MIC [5]: 64 µg/mL (≈ 106 µM)
- MIC [6]: 0.25 µg/mL (≈ 0.414 µM)
- Cumulative % of strains inhibited at MIC ([7]; MIC 0.125 µg/mL): 88.9%
- No. of strains inhibited at MIC ([7]; MIC 0.125 µg/mL): 3
- Cumulative % of strains inhibited at MIC ([7]; MIC 2 µg/mL): 100%
- No. of strains inhibited at MIC ([7]; MIC 2 µg/mL): 1
- Cumulative % of strains inhibited at MIC ([7]; MIC ≤[…]): 55.6%
- No. of strains inhibited at MIC ([7]; MIC ≤[…]): 5
- MIC50 ([7]; Streptococcus suis, S. suis, 9 clinical isolates, read-out: MIC50): ≤ 0.0625 µg/mL
- MIC90 ([7]; Streptococcus suis, S. suis, 9 clinical isolates, read-out: MIC90): 0.125 µg/mL (≈ 0.207 µM)
- MIC ([7]; Streptococcus suis, S. suis, 9 clinical isolates, read-out: MIC Range): 0.0625 to 2 µg/mL (≈ 0.104 to 3.31 µM)
- Cumulative % of strains inhibited at MIC ([8]; MIC 0.125 µg/mL): 91.7%
- No. of strains inhibited at MIC ([8]; MIC 0.125 µg/mL): 49
- Cumulative % of strains inhibited at MIC ([8]; MIC 0.5 µg/mL): 100.0%
- No. of strains inhibited at MIC ([8]; MIC 0.5 µg/mL): 1
- Cumulative % of strains inhibited at MIC ([8]; MIC […]): 98.6%
- No. of strains inhibited at MIC ([8]; MIC […]): 5
- Cumulative % of strains inhibited at MIC ([8]; MIC ≤[…]): 23.6%
- No. of strains inhibited at MIC ([8]; MIC ≤[…]): 17
- fold higher activity than comparator agents ([8]; E. faecalis clinical isolates): 2- to 16 fold
- MIC Range ([8]; E. faecalis, 72 clinical isolates): ≤0.0625 to 0.5 µg/mL
- MIC50 [8, 12]: 0.125 µg/mL (≈ 0.207 µM)
- MIC90 [8, 12]: 0.125 µg/mL (≈ 0.207 µM)
- MIC50 ([9]; Glaesserella parasuis, H. parasuis, 34 clinical isolates, read-out: MIC50): 0.5 µg/mL (≈ 0.828 µM)
- MIC90 ([9]; Glaesserella parasuis, H. parasuis, 34 clinical isolates, read-out: MIC90): 2 µg/mL (≈ 3.31 µM)
- Cumulative % of strains inhibited at MIC ([9]; MIC 0.125 µg/mL): 17.6%
- No. of strains inhibited at MIC ([9]; MIC 0.125 µg/mL): 1
- Cumulative % of strains inhibited at MIC ([9]; MIC 0.5 µg/mL): 47.1%
- No. of strains inhibited at MIC ([9]; MIC 0.5 µg/mL): 6
- Cumulative % of strains inhibited at MIC ([9]; MIC 1 µg/mL): 67.6%
- No. of strains inhibited at MIC ([9]; MIC 1 µg/mL): 7
- Cumulative % of strains inhibited at MIC ([9]; MIC 2 µg/mL): 97.1%
- No. of strains inhibited at MIC ([9]; MIC 2 µg/mL): 10
- Cumulative % of strains inhibited at MIC ([9]; MIC 4 µg/mL): 100.0%
- No. of strains inhibited at MIC ([9]; MIC 4 µg/mL): 1
- Cumulative % of strains inhibited at MIC ([9]; MIC […]): 29.4%
- No. of strains inhibited at MIC ([9]; MIC […]): 4
- Cumulative % of strains inhibited at MIC ([9]; MIC ≤[…]): 14.7%
- No. of strains inhibited at MIC ([9]; MIC ≤[…]): 5
- MIC Range ([9]; H. parasuis, 34 clinical isolates): ≤0.0625 to 4 µg/mL
- MIC (VRE (13B330)): 0.5 µg/mL (≈ 0.828 µM)
- IC50 ([10]; E. coli S30 T7 cell-free transcription/translation, 1 h, 37 °C, read-out: IC50 Inhib. of Protein Synthesis): 2 µM
- protein synthesis inhibition, fold greater than LZD ([10]; relative to IC50 of LZD): 2.5 fold
